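Following 48 hours of exposure in 96-well plates, responses at five concentrations were used to interpolate endpoints linearly. Here, GI50 denotes the concentration required for 50% inhibition of growth.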 The source made the active and inactive calls. Rule as the data show it: active = GI50 up to about 1.1 µM and inactive = higher.
Tests used:
Test in all cases: growth of human tumour cells (NCI), 48 h
[1] = tested on: 786-0
[2] = tested on: CAKI-1
[3] = tested on: CCRF-CEM
[4] = tested on: HL-60
[5] = tested on: HOP-62
[6] = tested on: HT-29
[7] = tested on: K562
[8] = tested on: M14
[9] = tested on: MOLT-4
[10] = tested on: OVCAR-3
[11] = tested on: RXF 393
[12] = tested on: SF-268
[13] = tested on: SF-539
[14] = tested on: SK-MEL-2
[15] = tested on: SK-MEL-5
[16] = tested on: SK-OV-3
[17] = tested on: SNB-19
[18] = tested on: TK-10
[19] = tested on: UACC-257

Measured: GI50

O=C1C2=C(CC3C(C2)C3(Br)Br)C(=O)C2=C1CC1C(C2)C1(Br)Br (centres undefined)
inactive: [1] > 100 µM | [2] > 100 µM | [3] 61.9 µM | [4] > 100 µM | [5] > 100 µM | [6] > 100 µM | [7] > 100 µM | [8] > 100 µM | [9] > 100 µM | [10] > 100 µM | [11] > 100 µM | [12] > 100 µM | [13] > 100 µM | [14] > 100 µM | [15] > 100 µM | [16] > 100 µM | [17] > 100 µM | [18] > 100 µM | [19] > 100 µM

O=C1c2ccccc2C(=O)N1CCCOCc1cnc(O)nc1O
inactive: [1] > 100 µM | [2] > 100 µM | [3] > 100 µM | [4] > 100 µM | [5] > 100 µM | [6] > 100 µM | [7] > 100 µM | [8] > 100 µM | [9] > 100 µM | [10] > 100 µM | [11] > 100 µM | [12] > 100 µM | [13] > 100 µM | [14] > 100 µM | [15] > 100 µM | [16] > 100 µM | [17] > 100 µM | [18] > 100 µM | [19] > 100 µM

O=C(NCCCN1CCN(CCCNC(=O)Nc2cc(Cl)ccc2Cl)CC1)Nc1cc(Cl)ccc1Cl
inactive: [1] 32.5 µM | [2] > 100 µM | [3] > 100 µM | [4] 34.4 µM | [5] 52.6 µM | [6] 51.4 µM | [7] 35.5 µM | [8] 27.4 µM | [9] > 100 µM | [10] > 100 µM | [11] > 100 µM | [12] 87.3 µM | [13] 44.5 µM | [14] > 100 µM | [15] 39.7 µM | [16] 97.9 µM | [17] 46.3 µM | [18] > 100 µM | [19] 16.5 µM

NC1=NCCC1(c1ccccc1)c1ccccn1 (centres undefined)
inactive: [1] > 100 µM | [2] > 100 µM | [3] > 100 µM | [4] > 100 µM | [5] > 100 µM | [6] > 100 µM | [7] > 100 µM | [8] > 100 µM | [9] > 100 µM | [10] > 100 µM | [11] > 100 µM | [12] > 100 µM | [13] > 100 µM | [14] > 100 µM | [15] > 100 µM | [16] > 100 µM | [17] > 100 µM | [18] > 100 µM | [19] > 100 µM

Cc1ccc(NC(=O)CC/C(CC(=O)C(C)(C)C)=N/Nc2nnc(C)n2N)cc1C
inactive: [1] > 100 µM | [2] > 100 µM | [3] 65 µM | [4] > 100 µM | [5] > 100 µM | [6] > 100 µM | [7] 43 µM | [8] > 100 µM | [9] 66.5 µM | [10] > 100 µM | [11] > 100 µM | [12] > 100 µM | [13] > 100 µM | [14] > 100 µM | [15] > 100 µM | [16] > 100 µM | [17] > 100 µM | [18] > 100 µM | [19] > 100 µM

CC(N)C(C)c1ccccc1 (centres undefined)
inactive: [1] > 100 µM | [2] > 100 µM | [3] > 100 µM | [4] > 100 µM | [5] > 100 µM | [6] > 100 µM | [7] > 100 µM | [8] > 100 µM | [9] > 100 µM | [10] > 100 µM | [11] > 100 µM | [12] > 100 µM | [13] > 100 µM | [14] > 100 µM | [15] > 100 µM | [16] > 100 µM | [17] > 100 µM | [18] > 100 µM | [19] > 100 µM
